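These data come from cells grown in 96-well plates and exposed to compound for 48 hours at five concentrations. Abbreviation: GI50, concentration required for 50% inhibition of growth. TGI: concentration producing complete growth inhibition.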
Tests used:
Experiment in all cases: growth of human tumour cells (NCI), 48 h
HCT-116 colon = tested on: HCT-116 colon
CCRF-CEM leukemia = tested on: CCRF-CEM leukemia
OVCAR-5 ovarian = tested on: OVCAR-5 ovarian
HOP-62 NSCLC = tested on: HOP-62 NSCLC
MDA-MB-435 = tested on: MDA-MB-435
SNB-75 CNS = tested on: SNB-75 CNS
RPMI-8226 leukemia = tested on: RPMI-8226 leukemia
U251 CNS = tested on: U251 CNS
786-0 renal = tested on: 786-0 renal
SF-295 CNS = tested on: SF-295 CNS
HS 578T breast = tested on: HS 578T breast
OVCAR-8 ovarian = tested on: OVCAR-8 ovarian
SNB-19 CNS = tested on: SNB-19 CNS
PC-3 prostate = tested on: PC-3 prostate
RXF 393 renal = tested on: RXF 393 renal
SK-OV-3 ovarian = tested on: SK-OV-3 ovarian
SK-MEL-2 melanoma = tested on: SK-MEL-2 melanoma
HT29 colon = tested on: HT29 colon
HCT-15 colon = tested on: HCT-15 colon
MCF7 breast = tested on: MCF7 breast
TK-10 renal = tested on: TK-10 renal
A498 renal = tested on: A498 renal
MDA-MB-231 breast = tested on: MDA-MB-231 breast
NCI-H23 lung = tested on: NCI-H23 lung
HOP-92 NSCLC = tested on: HOP-92 NSCLC
A549 NSCLC = tested on: A549 NSCLC
SK-MEL-5 melanoma = tested on: SK-MEL-5 melanoma
SW-620 colon = tested on: SW-620 colon
SF-268 CNS = tested on: SF-268 CNS
KM12 colon = tested on: KM12 colon
HCC-2998 colon = tested on: HCC-2998 colon
SN12C renal = tested on: SN12C renal
UO-31 renal = tested on: UO-31 renal
LOX IMVI melanoma = tested on: LOX IMVI melanoma
DU-145 prostate = tested on: DU-145 prostate
NCI-H522 lung = tested on: NCI-H522 lung
NCI-H226 lung = tested on: NCI-H226 lung
T-47D breast = tested on: T-47D breast
MALME-3M melanoma = tested on: MALME-3M melanoma
OVCAR-3 ovarian = tested on: OVCAR-3 ovarian
MOLT-4 leukemia = tested on: MOLT-4 leukemia
OVCAR-4 ovarian = tested on: OVCAR-4 ovarian
BT-549 breast = tested on: BT-549 breast
SR leukemia = tested on: SR leukemia
NCI/ADR-RES ovarian = tested on: NCI/ADR-RES ovarian
IGROV1 ovarian = tested on: IGROV1 ovarian
K-562 leukemia = tested on: K-562 leukemia
NCI-H460 lung = tested on: NCI-H460 lung
SF-539 CNS = tested on: SF-539 CNS

Which results are given for `Clc1ccc(-c2nc(C(Cl)Cl)nc3cc(-c4ccccc4)nn23)cc1`?
GI50 (HCT-116 colon): 1670 nM; TGI (HCT-116 colon): > 50 µM; GI50 (CCRF-CEM leukemia): > 50 µM; TGI (CCRF-CEM leukemia): > 50 µM; GI50 (OVCAR-5 ovarian): 1530 nM; TGI (OVCAR-5 ovarian): > 50 µM; GI50 (HOP-62 NSCLC): 1220 nM; TGI (HOP-62 NSCLC): 4.57 µM; GI50 (MDA-MB-435): 1800 nM; TGI (MDA-MB-435): > 50 µM; GI50 (SNB-75 CNS): 957 nM; TGI (SNB-75 CNS): > 50 µM; GI50 (RPMI-8226 leukemia): 2540 nM; TGI (RPMI-8226 leukemia): > 50 µM; GI50 (U251 CNS): 1120 nM; TGI (U251 CNS): > 50 µM; GI50 (786-0 renal): > 50 µM; TGI (786-0 renal): > 50 µM; GI50 (SF-295 CNS): 1450 nM; TGI (SF-295 CNS): > 50 µM; GI50 (HS 578T breast): 1380 nM; TGI (HS 578T breast): > 50 µM; GI50 (OVCAR-8 ovarian): 1440 nM; TGI (OVCAR-8 ovarian): > 50 µM; GI50 (SNB-19 CNS): 1490 nM; TGI (SNB-19 CNS): > 50 µM; GI50 (PC-3 prostate): 1740 nM; TGI (PC-3 prostate): > 50 µM; GI50 (RXF 393 renal): 813 nM; TGI (RXF 393 renal): 1870 nM; GI50 (SK-OV-3 ovarian): 1380 nM; TGI (SK-OV-3 ovarian): 4.75 µM; GI50 (SK-MEL-2 melanoma): > 50 µM; TGI (SK-MEL-2 melanoma): > 50 µM; GI50 (HT29 colon): 751 nM; TGI (HT29 colon): > 50 µM; GI50 (HCT-15 colon): 1300 nM; TGI (HCT-15 colon): > 50 µM; GI50 (MCF7 breast): 1470 nM; TGI (MCF7 breast): > 50 µM; GI50 (TK-10 renal): 2230 nM; TGI (TK-10 renal): > 50 µM; GI50 (A498 renal): 912 nM; TGI (A498 renal): 2210 nM; GI50 (MDA-MB-231 breast): 1800 nM; TGI (MDA-MB-231 breast): > 50 µM; GI50 (NCI-H23 lung): 947 nM; TGI (NCI-H23 lung): 2640 nM; GI50 (HOP-92 NSCLC): 1250 nM; TGI (HOP-92 NSCLC): > 50 µM; GI50 (A549 NSCLC): 875 nM; TGI (A549 NSCLC): 2340 nM; GI50 (SK-MEL-5 melanoma): > 50 µM; TGI (SK-MEL-5 melanoma): > 50 µM; GI50 (SW-620 colon): 1010 nM; TGI (SW-620 colon): > 50 µM; GI50 (SF-268 CNS): 1700 nM; TGI (SF-268 CNS): > 50 µM; GI50 (KM12 colon): 884 nM; TGI (KM12 colon): 2890 nM; GI50 (HCC-2998 colon): 741 nM; TGI (HCC-2998 colon): 1420 nM; GI50 (SN12C renal): > 50 µM; TGI (SN12C renal): > 50 µM; GI50 (UO-31 renal): 2040 nM; TGI (UO-31 renal): > 50 µM; GI50 (LOX IMVI melanoma): > 50 µM; TGI (LOX IMVI melanoma): > 50 µM; GI50 (DU-145 prostate): 516 nM; TGI (DU-145 prostate): 2020 nM; GI50 (NCI-H522 lung): 1520 nM; TGI (NCI-H522 lung): > 50 µM; GI50 (NCI-H226 lung): > 50 µM; TGI (NCI-H226 lung): > 50 µM; GI50 (T-47D breast): 1730 nM; TGI (T-47D breast): > 50 µM; GI50 (MALME-3M melanoma): 2000 nM; TGI (MALME-3M melanoma): > 50 µM; GI50 (OVCAR-3 ovarian): 925 nM; TGI (OVCAR-3 ovarian): 2010 nM; GI50 (MOLT-4 leukemia): 1740 nM; TGI (MOLT-4 leukemia): > 50 µM; GI50 (OVCAR-4 ovarian): 917 nM; TGI (OVCAR-4 ovarian): 3.63 µM; GI50 (BT-549 breast): > 50 µM; TGI (BT-549 breast): > 50 µM; GI50 (SR leukemia): 645 nM; TGI (SR leukemia): 3.94 µM; GI50 (NCI/ADR-RES ovarian): 1270 nM; TGI (NCI/ADR-RES ovarian): > 50 µM; GI50 (IGROV1 ovarian): 2400 nM; TGI (IGROV1 ovarian): > 50 µM; GI50 (K-562 leukemia): 1810 nM; TGI (K-562 leukemia): > 50 µM; GI50 (NCI-H460 lung): 787 nM; TGI (NCI-H460 lung): 2150 nM; GI50 (SF-539 CNS): 2340 nM; TGI (SF-539 CNS): > 50 µM

Reference: PubChem BioAssay (NCI)
